The values below come from ChEMBL document CHEMBL4837199, “Design and evaluation of novel piperidine HIV-1 protease inhibitors with potency against DRV-resistant variants” (Eur J Med Chem, 2021).

In data set [1] the test system is Human immunodeficiency virus 1. Nature of the data set: Antiviral activity against HIV1. Format: functional, organism-based.
The nature of data set [2]: Selectivity index, ratio of CC50 for cytotoxicity against HEK293T cells to IC50 of antiviral activity against HIV1. Format: toxicity, cell-based. Conditions: human, read-out: Ratio CC50/IC50.
The test system of data set [3] is Human immunodeficiency virus 1. Nature of the data set: Antiviral activity against HIV1 Env-deficient VSV-G pseudotyped virus infected in human SUP-T1 cells infected with supernatant of compound treated virus-producing 293T cells assessed as inhibition of late stage viral production at 10 uM treated for 48 hrs with virus-producing 293T cells followed by SUP-T1 cells infection for 48 hrs by single-round infection luciferase assay relative to control. The format is functional. The note with it: Human immunodeficiency virus 1, SUP-T1, time 96 hrs.

A short description of data set [4]: Cytotoxicity against HEK293T cells assessed as reduction in cell viability incubated for 24 hrs by CCK8 assay. The format is cell-based, HEK-293T. The note with it: human.
For data set [5], the system named is Human immunodeficiency virus 1. Description: Antiviral activity against HIV1 (NL4-3) Env-deficient VSV-G pseudotyped virus infected in human SUP-T1 cells assessed as inhibition of early stage viral production at 10 uM measured after 48 hrs by luciferase assay relative to control. Format: functional. Conditions: Human immunodeficiency virus 1, NL4-3, SUP-T1.
Data set [6] has as its target Human immunodeficiency virus type 1 protease (Human immunodeficiency virus 1, UniProt Q72874). Description: Inhibition of wild type HIV1 protease using Arg-Glu (EDANS)-Ser-Gln-Asn-Tyr-Pro-Ile-Val-Gln-Lys(DABCYL)-Arg as substrate preincubated for 20 to 30 mins followed by substrate addition and measured for 10 mins by FRET assay.
In data set [7] the test system is Human immunodeficiency virus 1. Nature of the data set: Antiviral activity against HIV1 subtype C isolate-plndie. Format: functional, organism-based. Conditions: Human immunodeficiency virus 1, subtype C isolate-plndie.
Data set [8] deals with Human immunodeficiency virus 1. Description: Antiviral activity against DRV resistant HIV1 infected in human MT4 cells assessed as reduction in viral replication by measuring reduction in p24 Gag production by chemiluminescent-EIA. The format is functional, organism-based. Conditions: Human immunodeficiency virus 1, MT4.
Data set [9] has as its system Human immunodeficiency virus 1. Description: Antiviral activity against HIV1 NL4-3 infected in human MT4 cells assessed as reduction in viral replication by measuring reduction in p24 Gag production by chemiluminescent-EIA. The format is functional, organism-based. Conditions: Human immunodeficiency virus 1, NL4-3, MT4.
The test system of data set [10] is Human immunodeficiency virus 1. Description: Antiviral activity against HIV1 subtype C isolate 11941. The format is functional, organism-based.
The subject of data set [11] is Human immunodeficiency virus 1. Description: Antiviral activity against HIV1 Env-deficient VSV-G pseudotyped virus infected in human SUP-T1 cells infected with supernatant of compound treated virus-producing 293T cells assessed as inhibition of late stage viral production at 100 nM treated for 48 hrs with virus-producing 293T cells followed by SUP-T1 cells infection for 48 hrs by single-round infection luciferase assay relative to control. The format is functional. Conditions: Human immunodeficiency virus 1, SUP-T1, time 96 hrs.

Data set [12] relates to Human immunodeficiency virus 1. Description: Antiviral activity against HIV1 subtype C isolate 11928. Format: functional, organism-based.
Data set [13] concerns Human immunodeficiency virus 1. Nature of the data set: Antiviral activity against HIV1 subtype C isolate 11929. Format: functional, organism-based. The note with it: Human immunodeficiency virus 1, subtype C isolate 11929.
Data set [14] is described as follows: Resistance index, ratio of IC50 for DRV resistant HIV1 infected in human MT4 cells to IC50 for HIV1 NL4-3 infected in human MT4 cells. Format: functional.
Data set [15] addresses Human immunodeficiency virus type 1 protease (Human immunodeficiency virus 1) (UniProt Q72874). Nature of the data set: Potency index, ratio of DRV Ki to test compound Ki for inhibition of wild type HIV1 protease using Arg-Glu (EDANS)-Ser-Gln-Asn-Tyr-Pro-Ile-Val-Gln-Lys(DABCYL)-Arg as substrate preincubated for 20 to 30 mins followed by substrate addition and measured for 10 mins by FRET assay. Conditions: time 30-40 min.

`COc1ccc(S(=O)(=O)N(CC(C)C)C[C@@H](O)[C@H](Cc2ccccc2)NC(=O)[C@@H]2CCCN(C)C2)cc1` came in with an IC50 in [1] of 0.18 nM. Also, the selectivity ratio in data set [2] was > 556000. Also, the inhibition at 10 µM in [3] came out at 98%; in [5], 5%. Moreover, the CC50 at 24 h in data set [4] was > 100000 nM. This molecule displayed a Ki in data set [6] of 0.04 nM.

`COc1ccc(S(=O)(=O)N(CC(C)C)C[C@@H](O)[C@H](Cc2ccccc2)NC(=O)C2CCNCC2)cc1`: in [1], the IC50 was 2.45 nM. Moreover, in [2], the selectivity ratio was > 40800. The CC50 at 24 h in data set [4] is > 100000 nM. In data set [6], this molecule came in with a Ki of 0.55 nM.

For `CC(C)CN(C[C@@H](O)[C@H](Cc1ccccc1)NC(=O)[C@@H]1CCCNC1)S(=O)(=O)c1ccc(N)cc1`, in [1], the half-maximal inhibitory concentration (IC50) was determined as 1.21 nM. The selectivity ratio in data set [2] was > 82600. The inhibition at 10 µM in data set [3] is 81%. For the same molecule, the cytotoxic concentration (CC50) at 24 h in data set [4] was > 100000 nM. Besides, the affinity in data set [6], expressed as Ki, was 0.27 nM.

As to `CC(C)CN(C[C@@H](O)[C@H](Cc1ccccc1)NC(=O)[C@@H]1CCCN(C)C1)S(=O)(=O)c1ccc(N)cc1`, the IC50 in [1] was 1.35 nM. The selectivity ratio in data set [2] is > 74100. In [3], the inhibition at 10 µM was 83%. In addition, the cytotoxic concentration (CC50) at 24 h in data set [4] is > 100000 nM. For the same molecule, the Ki in data set [6] stood at 0.3 nM.

In turn, `CC(C)CN(C[C@@H](O)[C@H](Cc1ccccc1)NC(=O)[C@H]1CCCNC1)S(=O)(=O)c1ccc(C(F)(F)F)cc1` returned a concentration for half-maximal inhibition (IC50) in [1] of 196 nM. Besides, the Ki in data set [6] came to 43.9 nM.

Take `CC(C)CN(C[C@@H](O)[C@H](Cc1ccccc1)NC(=O)[C@@H]1CCCCN1)S(=O)(=O)c1ccc(N)cc1`: half-maximal inhibition in data set [1] (IC50) was put at 9.04 nM. The selectivity ratio in data set [2] is > 11100. Besides, the 50% cytotoxic concentration (CC50) at 24 h in data set [4] is > 100000 nM. In addition, the Ki in data set [6] was determined as 2.03 nM.

As to `CC(C)CN(C[C@@H](O)[C@H](Cc1ccccc1)NC(=O)C1CCNCC1)S(=O)(=O)c1ccc(N)cc1`, the IC50 in data set [1] turned out to be 24.6 nM. This molecule registered a Ki in data set [6] of 5.52 nM.

Molecule `CC(C)CN(C[C@@H](O)[C@H](Cc1ccccc1)NC(=O)OC[C@@H]1CCCNC1)S(=O)(=O)c1ccc(C(F)(F)F)cc1` had an IC50 in data set [1] of 7.71 nM. Further, the selectivity ratio in data set [2] was > 13000. Besides, the CC50 at 24 h in [4] is > 100000 nM. For the same molecule, the inhibitory constant (Ki) in [6] stood at 1.73 nM.

As to `CC(C)CN(C[C@@H](O)[C@H](Cc1ccccc1)NC(=O)C1CCNCC1)S(=O)(=O)c1ccc(C(F)(F)F)cc1`, in data set [1], inhibition was half-maximal at 26.5 nM (IC50). For the same molecule, the inhibitory constant (Ki) in data set [6] amounted to 5.93 nM.

In data set [1], `CC(C)CN(C[C@@H](O)[C@H](Cc1ccccc1)NC(=O)[C@@H]1CCCCN1)S(=O)(=O)c1ccc(C(F)(F)F)cc1` returned an IC50 of 20.6 nM. The molecule further showed a Ki in [6] of 4.61 nM.

Regarding `CC(C)CN(C[C@@H](O)[C@H](Cc1ccccc1)NC(=O)OC[C@H]1CCCNC1)S(=O)(=O)c1ccc(N)cc1`, the IC50 in [1] was 4.53 nM. Further, in data set [2], the selectivity ratio was > 22100. In addition, in data set [4], the CC50 at 24 h is > 100000 nM. In data set [6], the Ki stood at 1.01 nM.

With `CC(C)CN(C[C@@H](O)[C@H](Cc1ccccc1)NC(=O)[C@H]1CCCNC1)S(=O)(=O)c1ccc(N)cc1`, the IC50 in [1] was 181 nM. The Ki in data set [6] came to 40.5 nM.

The molecule `CC(C)CN(C[C@@H](O)[C@H](Cc1ccccc1)NC(=O)[C@@H]1CCCN(C)C1)S(=O)(=O)c1ccc(C(F)(F)F)cc1` gave an IC50 in data set [1] of 0.84 nM. The selectivity ratio in [2] is > 119000. The inhibition at 10 µM in data set [3] was 88%. The CC50 at 24 h in data set [4] is > 100000 nM. In data set [6], this molecule came in with an inhibition constant Ki of 0.19 nM.

Turning to `COc1ccc(S(=O)(=O)N(CC(C)C)C[C@@H](O)[C@H](Cc2ccccc2)NC(=O)OC[C@H]2CCCNC2)cc1`, the IC50 in data set [1] came out at 1.35 nM. In data set [2], the selectivity ratio was > 74100. Also, in data set [4], the CC50 at 24 h is > 100000 nM. The molecule further showed a Ki in data set [6] of 0.3 nM.

As for `COc1ccc(S(=O)(=O)N(CC(C)C)C[C@@H](O)[C@H](Cc2ccccc2)NC(=O)[C@@H]2CCCCN2)cc1`, in data set [1], the IC50 amounted to 1.46 nM. The selectivity ratio in data set [2] was > 68500. Moreover, the inhibition at 10 µM in data set [3] was found to be 79%. Further, the CC50 at 24 h in data set [4] was > 100000 nM. In data set [6], this molecule displayed a Ki of 0.33 nM.

Take `CC(C)CN(C[C@@H](O)[C@H](Cc1ccccc1)NC(=O)O[C@H]1CO[C@H]2OCC[C@H]21)S(=O)(=O)c1ccc(N)cc1`: the EC50 came out at 1260 nM in data set [7]; 240 nM in [8]; 3.9 nM in data set [9]; 910 nM in [10]; 2010 nM in [12]; 3630 nM in data set [13]. For the same molecule, the inhibition at 0.1 µM in [11] was 100%. In addition, in [4], the CC50 at 24 h is > 100000 nM.

For the molecule `CC(C)CN(C[C@@H](O)[C@H](Cc1ccccc1)NC(=O)OC[C@H]1CCCNC1)S(=O)(=O)c1ccc(C(F)(F)F)cc1`, the IC50 in data set [1] was 11.7 nM. Also, in [2], the selectivity ratio is > 8580. Also, the CC50 at 24 h in data set [4] is > 100000 nM. For the same molecule, the affinity in [6], expressed as Ki, was 2.61 nM.

Molecule `CC(C)CN(C[C@@H](O)[C@H](Cc1ccccc1)NC(=O)OC[C@@H]1CCCNC1)S(=O)(=O)c1ccc(N)cc1` displayed an IC50 in data set [1] of 1.27 nM. Besides, the selectivity ratio in data set [2] was > 78700. Besides, the inhibition at 10 µM in data set [3] came to 71%. Further, in data set [4], the CC50 at 24 h was > 100000 nM. The molecule further came in with a Ki in data set [6] of 0.28 nM.

As for `COc1ccc(S(=O)(=O)N(CC(C)C)C[C@@H](O)[C@H](Cc2ccccc2)NC(=O)OC[C@@H]2CCCNC2)cc1`, in [1], inhibition was half-maximal at 0.43 nM (IC50). In addition, the selectivity ratio in [2] was > 233000. In addition, the inhibition at 10 µM in data set [3] is 94%. Moreover, in data set [4], the CC50 at 24 h is > 100000 nM. The molecule also registered a Ki in data set [6] of 0.1 nM.

For `COc1ccc(S(=O)(=O)N(CC(C)C)C[C@@H](O)[C@H](Cc2ccccc2)NC(=O)[C@H]2CCCNC2)cc1`, inhibition in [1] was half-maximal at 44.6 nM (IC50). Besides, the inhibition at 10 µM in data set [3] stood at 93%. The molecule further yielded an inhibitory constant (Ki) in [6] of 9.99 nM.

Consider `CC(C)CN(C[C@@H](O)[C@H](Cc1ccccc1)NC(=O)[C@@H]1CCCNC1)S(=O)(=O)c1ccc(C(F)(F)F)cc1`, for which 0.45 nM corresponded to half-maximal inhibition in data set [1] (IC50). Besides, in data set [2], the selectivity ratio is > 222000. For the same molecule, the CC50 at 24 h in data set [4] was > 100000 nM. Further, the Ki in data set [6] turned out to be 0.1 nM.

In the case of `COc1ccc(S(=O)(=O)N(CC(C)C)C[C@@H](O)[C@H](Cc2ccccc2)NC(=O)[C@@H]2CCCNC2)cc1`, in data set [1], the midpoint of inhibition, the IC50, lay at 0.13 nM. Besides, the selectivity ratio in data set [2] was > 769000. The EC50 came to 26300 nM in data set [7]; 900 nM in [8]; 500 nM in data set [9]; 11800 nM in data set [10]; 49400 nM in [12]; 14800 nM in [13]. Besides, the inhibition at 10 µM was determined as 99% in data set [3] and 3% in data set [5]. In addition, the CC50 at 24 h in data set [4] was > 100000 nM. The molecule also showed a Ki in data set [6] of 0.029 nM. Besides, in data set [14], the “Ratio IC50” value came to 1.8. The Ratio Ki in [15] came to 6.
